Patent US20160137639A1, “TRIAZOLE-ISOXAZOLE COMPOUND AND MEDICAL USE THEREOF” (JAPAN TOBACCO INC., priority 2012, published 2016)

Key:
[1] = biological target: T1, human RORγ (Homo sapiens, UniProt P51449); assay: Luciferase reporter gene assay of inhibitory effect against RORγ transcriptional activity (GAL4-hRORγ plasmid in CHO cells); format: cell-based; settings: read-out: LUC EC50 (μM) hRORg
T1 construct: human, NM_005060.3 and from Ser253 to Lys518; expressed in transfected cells; host or cells: CHO cells (transient co-transfection with pG5-Luc reporter)
T1 sequence (P51449 253-518): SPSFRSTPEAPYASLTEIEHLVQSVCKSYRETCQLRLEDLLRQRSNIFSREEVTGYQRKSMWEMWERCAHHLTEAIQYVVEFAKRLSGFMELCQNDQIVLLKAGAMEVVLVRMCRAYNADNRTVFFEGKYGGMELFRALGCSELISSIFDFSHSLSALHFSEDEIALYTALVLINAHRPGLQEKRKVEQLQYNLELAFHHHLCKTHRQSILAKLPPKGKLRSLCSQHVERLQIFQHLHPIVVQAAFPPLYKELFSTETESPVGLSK

[2] = biological target: T2, mouse RORγ (Mus musculus, UniProt P51450); assay: Luciferase reporter gene assay of inhibitory effect against RORγ transcriptional activity (GAL4-mRORγ plasmid in CHO cells); format: cell-based; settings: read-out: LUC EC50 (μM) mRORg
T2 construct: mouse, NM_011281.2 and from Ile251 to Lys516; expressed in transfected cells; host or cells: CHO cells (transient co-transfection with pG5-Luc reporter)
T2 sequence (P51450 251-516): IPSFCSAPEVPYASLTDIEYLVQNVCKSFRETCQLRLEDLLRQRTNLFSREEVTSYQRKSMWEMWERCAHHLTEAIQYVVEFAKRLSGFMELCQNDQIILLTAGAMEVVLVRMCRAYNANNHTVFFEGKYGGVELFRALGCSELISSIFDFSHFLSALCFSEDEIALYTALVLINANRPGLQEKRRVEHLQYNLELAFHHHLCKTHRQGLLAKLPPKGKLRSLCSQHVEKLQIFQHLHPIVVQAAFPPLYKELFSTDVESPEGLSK
Outline: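 Readout is intracellular luciferase after 2-day compound exposure (8 concentrations, 0.1% DMSO) in CHO cells expressing GAL4 fused to mouse RORγ LBD residues Ile251–Lys516 plus pG5-Luc reporter. EC50 fitted from %-of-control; points showing resazurin-detected cytotoxicity dropped.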

SMILES	EC50 [1] [µM]	EC50 [2] [µM]
CC(=O)N1C[C@H](C(=O)Nc2ccc(C)cc2C)[C@@H](c2nnc(-c3ccc(C(C)C)cc3)n2C2CC2)C1 [Example F-371]	< 3	< 3
CC(=O)N1C[C@@H](C(=O)Nc2ccc(C)cc2C)[C@H](c2nnc(-c3ccc(C(C)C)cc3)n2C2CC2)C1 [Example F-372]	> 3	> 3
CC(=O)N1C[C@H](C(=O)Nc2ccc(C)cc2C)[C@@H](c2nnc(CCC3CCCCC3)n2C2CC2)C1 [Example F-374]	< 3	< 3
CC(=O)N1C[C@@H](C(=O)Nc2ccc(C)cc2C)[C@H](c2nnc(CCC3CCCCC3)n2C2CC2)C1 [Example F-375]	> 3	> 3
Cc1ccc(NC(=O)C[C@@H](CCO)c2nnc(CCCC(C)(C)C)n2CC(F)(F)F)c(C)c1 [Example F-379]	> 3	< 3
Cc1ccc(NC(=O)C[C@H](CCO)c2nnc(CCCC(C)(C)C)n2CC(F)(F)F)c(C)c1 [Example F-380]	< 3	< 3
C=CC[C@H](CC(=O)Nc1ccc(C)cc1C)c1nnc(CCCC(C)(C)C)n1C1CC1 [Example F-381]	> 3	< 3
Cc1ccc(NC(=O)C[C@@H](CCO)c2nnc(CCC3CCCCC3)n2C2CC2)c(C)c1 [Example F-384]	> 3	> 3
Cc1ccc(NC(=O)C[C@H](CCO)c2nnc(CCC3CCCCC3)n2C2CC2)c(C)c1 [Example F-385]	< 3	< 3
Cc1ccc(NC(=O)[C@H]2CC(=O)N(C)[C@@H]2c2nnc(CCCC(C)(C)C)n2C2CC2)c(C)c1 [Example F-388]	< 3	< 3
C=CC[C@@H](CC(=O)Nc1ccc(C)cc1C)c1nnc(CCCC(C)(C)C)n1C1CC1 [Example F-389]	< 3	< 3
CC(=O)N1C[C@H](C(=O)Nc2ccc(C)cc2C)[C@@H](c2nnc(CCCC(C)(C)C)n2CC(F)(F)F)C1 [Example F-392]	< 3	< 3
CC(=O)N1C[C@@H](C(=O)Nc2ccc(C)cc2C)[C@H](c2nnc(CCCC(C)(C)C)n2CC(F)(F)F)C1 [Example F-393]	> 3	> 3
CC(=O)N1C[C@H](C(=O)Nc2ccc(C)cc2C)[C@@H](c2nnc(CCC3CCCCC3)n2C2CC2)C1 [Example F-402]	< 3	< 3
Cc1ccc(NC(=O)C[C@@H](c2nnc(CCCC(C)(C)C)n2C2CC2)N2CCCC2=O)c(C)c1 [Example F-403]	< 3	< 3
Cc1ccc(NC(=O)CCc2nnc(-c3ccc(CC(C)C)cc3)n2C2CC2)c(C)c1 [Example F-404]	< 3	< 3
Cc1ccc(NC(=O)CCc2nnc(-c3cc(CC(C)C)on3)n2C2CC2)c(C)c1 [Example F-405]	< 3	< 3
CC(=O)N1C[C@H](C(=O)Nc2ccc(C)cc2C)[C@@H](c2nnc(-c3ccc(CC(C)C)cc3)n2C2CC2)C1 [Example F-406]	< 3	< 3
CC(=O)N1C[C@@H](C(=O)Nc2ccc(C)cc2C)[C@H](c2nnc(-c3ccc(CC(C)C)cc3)n2C2CC2)C1 [Example F-407]	> 3	> 3
CC(=O)N1C[C@H](C(=O)Nc2ccc(C)cc2C)[C@@H](c2nnc(-c3cc(CC(C)C)on3)n2C2CC2)C1 [Example F-408]	< 3	< 3
CC(=O)N1C[C@@H](C(=O)Nc2ccc(C)cc2C)[C@H](c2nnc(-c3cc(CC(C)C)on3)n2C2CC2)C1 [Example F-409]	> 3	> 3
CC(=O)N1C[C@H](C(=O)Nc2ccc(C)cc2C)[C@@H](c2nnc(-c3ccc(C(C)C)cc3)n2C2CC2)C1 [Example F-411]	< 3	< 3
Cc1ccc(NC(=O)CCc2nnc(C3CC4(CCCC4)C3)n2C2CC2)c(C)c1 [Example F-420]	< 3	< 3
Cc1ccc(NC(=O)CCc2nnc([C@H]3C[C@H](CC4CCCC4)C3)n2C2CC2)c(C)c1 [Example F-423]	< 3	< 3
